Reference: patent US11052131B2, “Methods and pharmaceutical compositions for the treatment of kidney cancer” (INSERM (Institut National de la Santé et de la Recherche …, priority 2016, dated 2021)
Entries after “also recorded” stand apart in the source; their conditions may differ.

How the values were obtained:
[1] = test system: Renca cells; assay: Kidney tumor progression, subcapsular inoculation of Renca cells in syngenic mice; assay type: in vivo; settings: Renca cells expressing the construct (lentiviral), sub-capsular injection
Description: FIG. 3. Effect of Elabela expression in the kidney tumor cells (Renca) on kidney tumor progression. Elabela wild type (ela wt) or control lentivirus were used to express ela wt in Renca cells prior their subcapsular inoculation in syngenic mice.

[2] = test system: LC3II; assay: mTOR signalling pathway in serum-starved RENCA cells: autophagy (LC3II); assay type: cell-based, murine; settings: lentiviral expression in RENCA cells, serum starvation
Method: (§1) RENCA cells overexpressing lentivirus encoding for wild type proEla, mutant proEla, or only tdTomato, were maintained in serum free media for different time. Cells were lysed in RIPA buffer (150 mM NaCl, 50 mM Tris, 1 mM EDTA, 1% NP40, 0.25% sodium deoxycholate, pH8) and were subjected to SDS-PAGE on 12% gels. Cell lysates were analyzed by western blotting for LC3, NFkB, Erk1/2, AKT, S6K or actin using anti phosphor NFkB, anti-phospho Erk, anti-phospho-Akt, anti-phospho S6K. The blots were stripped and reprobed with ERK, AKT or P70 (Cell Signaling) for data normalization. Primary antibodies were visualized using horseradish peroxidase-conjugated secondary antibodies (Amersham), and signals were detected using ECLPlus chemiluminescence system according to the manufacturers' instructions (Amersham).
(§2) To evaluate the role of Elabela on kidney cancer progression, we used RENCA cells expressing elabela or elabela mutated at the furin site. Cells wera starved of serum for 1, 3, 6, 12 or 24 hours and the effect of Elabela on the mTOR pathway was observed by lookind at the phosphorylation or nfkB, Erk1/2, akt, or S6K.

[3] = test system: PI3K signaling; assay: mTOR signalling pathway in serum-starved RENCA cells: PI3K (P(308)AKT); assay type: cell-based, murine; settings: lentiviral expression in RENCA cells, serum starvation
Method: as §1, §2

[4] = test system: Renca cells; assay: Wound healing assay; assay type: cell-based, murine; settings: in vitro, 8 or 24 h after serum starvation
Method: Renca cells were cultivated until sub-confluency. A scratch is realized with a tip on each well and the wound healing is observed after 8 or 24 h after serum starvation.

[5] = test system: P70s6K; assay: P70 activation analysis (phospho-P70 western blot) in HEK293A GFP-APJ cells; assay type: cell-based, human; settings: 1 μM, same conditions
Method: (§3) Cells were lysed in RIPA buffer (150 mM NaCl, 50 mM Tris, 1 mM EDTA, 1% NP40, 0.25% sodium deoxycholate, pH8) and were subjected to SDS-PAGE on 12% gels. Cell lysates were analyzed by western blotting for ERK, AKT and P70 phosphorylation using an anti-phospho-ERK; anti-phospho-AKT and anti-phospho-P70 (Cell Signaling), respectively. The blots were stripped and reprobed with ERK, AKT or P70 (Cell Signaling) for data normalization. Primary antibodies were visualized using horseradish peroxidase-conjugated secondary antibodies (Amersham), and signals were detected using ECLPlus chemiluminescence system according to the manufacturers' instructions (Amersham).

[6] = test system: Renca cells; assay: Proliferation assay (IncuCyte ZOOM live cell imaging); assay type: cell-based, murine; settings: 2% foetal calf serum, 50 hours
Method: FIG. 8. RENCA (20,000 cells 4 cells/well) cells were plated in 96-well plates, proliferation assay was performed using the IncuCyte ZOOM™ live cell imaging system (Essen BioScience, MI USA). This system measures cell density. Cells are routinely propagated in RPMI 1640 medium (Life Technologies) in 2% foetal calf serum at 37° C. Cells are regularly screened for Mycoplasma (ATCC). The plate is placed into the IncuCyte ZOOM™ apparatus and images of the collective cell spreading are recorded every 2 hours for a total duration of 50 hours.

[7] = test system: mTORC2 signaling; assay: mTOR signalling pathway in serum-starved RENCA cells: mTORC2 (P(473)AKT); assay type: cell-based, murine; settings: lentiviral expression in RENCA cells, serum starvation
Method: as §1, §2

[8] = test system: NFkB signaling; assay: mTOR signalling pathway in serum-starved RENCA cells: NFkB; assay type: cell-based, murine; settings: lentiviral expression in RENCA cells, serum starvation
Method: as §1, §2

[9] = molecular target: recombinant human furin (Homo sapiens, UniProt P09958); assay: In vitro enzymatic digestion of Ela peptides with furin (western blot); assay type: biochemical; settings: furin 0.2×10^−4U, 4 h, western blotting with anti-Ela antibody
Sequence of recombinant human furin (P09958 108-794): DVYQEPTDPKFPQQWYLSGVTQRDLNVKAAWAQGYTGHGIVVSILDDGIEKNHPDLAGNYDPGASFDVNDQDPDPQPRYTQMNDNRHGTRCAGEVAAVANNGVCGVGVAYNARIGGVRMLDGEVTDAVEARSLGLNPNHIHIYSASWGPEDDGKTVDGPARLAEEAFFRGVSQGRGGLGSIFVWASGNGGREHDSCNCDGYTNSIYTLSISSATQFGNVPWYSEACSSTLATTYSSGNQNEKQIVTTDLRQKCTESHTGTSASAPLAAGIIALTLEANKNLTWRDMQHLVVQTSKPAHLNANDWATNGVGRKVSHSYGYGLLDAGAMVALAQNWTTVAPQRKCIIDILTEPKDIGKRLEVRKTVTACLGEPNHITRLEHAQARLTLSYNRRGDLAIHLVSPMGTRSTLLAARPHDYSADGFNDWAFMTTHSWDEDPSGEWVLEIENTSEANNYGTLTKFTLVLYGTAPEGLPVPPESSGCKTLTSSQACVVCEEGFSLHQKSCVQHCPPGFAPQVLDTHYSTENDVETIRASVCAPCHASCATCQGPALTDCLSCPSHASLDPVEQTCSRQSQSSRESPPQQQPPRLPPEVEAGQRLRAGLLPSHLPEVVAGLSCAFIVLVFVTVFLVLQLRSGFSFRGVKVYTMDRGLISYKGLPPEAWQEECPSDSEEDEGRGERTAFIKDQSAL
Method: FIG. 4. ProEla processing. […] As assessed by western blotting using an anti-Ela antibody, furin processes the wild-type proEla 32 at the corresponding physiological cleavage sites.
Ela peptides were digested with furin for 4 h as previously described (Sfaxi et al., 2014, Scamuffa et al., 2008) and were subjected to Western blotting analysis.
The generated in vitro enzymatic digestion products were subjected to SDS-polyacrylamide gel electrophoresis in 13% gels. The primary antibody used was an anti-Ela 11 (Eurogentec). Horseradish peroxidase-conjugated secondary antibody and enhanced chemiluminescence (ECL+Plus, Amersham) were used for primary antibody revelation according to the manufacturers' instructions using a Chemiluminescence imaging system (GeneGnome, Syngene) (Sfaxi et al., 2014, Scamuffa et al., 2008).
The cDNA structure of human ELA predicts an 54 amino acids (aa) pre-proEla. Following the removal of the 22 aa of the signal peptide the hormone is released as proEla of 32 aa. […] To study the importance of the proteolytic maturation of […] by the PCs in the mediation of its function we first assessed experimentally proEla 32 processing by furin using an in vitro digestion assay.

[10] = test system: ERK; assay: ERK activation analysis (phospho-ERK western blot) in HEK293A GFP-APJ cells; assay type: cell-based, human; settings: 1 μM; for phosphorylation of ERK: within 5 min of treatment
Method: as §3

[11] = test system: mTORC1 pathway; assay: mTOR signalling pathway in serum-starved RENCA cells: mTORC1 (S6K and S6 phosphorylation); assay type: cell-based, murine; settings: lentiviral expression in RENCA cells, serum starvation
Method: as §1, §2

[12] = test system: AKT; assay: AKT activation analysis (phospho-AKT western blot) in HEK293A GFP-APJ cells; assay type: cell-based, human; settings: 1 μM; for phosphorylation of AKT: seen after 5 min
Method: as §3

[13] = test system: Renca cells; assay: Tumorigenicity assay, Renca cells injected subcutaneously into syngeneic Balb/c mice; assay type: in vivo; settings: for tumor growth / tumor progression: 1×10^5 Renca cells stably expressing the construct (lentiviral), subcutaneous, vs control cells with empty vector; for tumor growth inhibition, wild type compared to mutant: subcutaneous Renca tumors, Balb/c mice
[14] = test system: ERK signaling; assay: mTOR signalling pathway in serum-starved RENCA cells: ERK signaling; assay type: cell-based, murine; settings: lentiviral expression in RENCA cells, serum starvation
Method: as §1, §2

[15] = molecular target: T1, human GFP-APJ fusion protein (Homo sapiens, UniProt P35414); assay: APJ receptor internalization assay in HEK293A cells expressing GFP-APJ; assay type: cell-based; settings: 1 μM peptide, 30 min, HEK293 cells expressing GFP-APJ
T1 construct: expressed in transfected cells
T1 sequence (P35414 1-380): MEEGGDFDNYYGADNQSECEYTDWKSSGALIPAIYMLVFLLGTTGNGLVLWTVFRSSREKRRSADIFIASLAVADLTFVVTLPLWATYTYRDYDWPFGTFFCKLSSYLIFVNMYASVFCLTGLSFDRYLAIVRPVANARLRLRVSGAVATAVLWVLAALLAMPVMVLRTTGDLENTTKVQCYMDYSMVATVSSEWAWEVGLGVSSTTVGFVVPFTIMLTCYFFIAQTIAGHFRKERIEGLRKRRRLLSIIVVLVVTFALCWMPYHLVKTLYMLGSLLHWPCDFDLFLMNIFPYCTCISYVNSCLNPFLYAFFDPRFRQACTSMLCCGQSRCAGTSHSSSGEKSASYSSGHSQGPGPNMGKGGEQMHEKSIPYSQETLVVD
Method: Cells were fixed with 4% paraformaldehyde for 10 minutes at room temperature and APJ receptor internalization was analyzed using a Nikon epifluorescence microscopy.
Ligand-induced receptor internalization is a cellular response of APJ to ligand binding and its activation.

| Substance | induction of autophagy, estimated by LC3II levels [2] | PI3K signaling, determined by P(308)AKT [3] | P70s6K activation [5] | mTORC2 signaling, determined by P(473)AKT [7] | NFkB signaling [8] | phosphorylation of ERK after 15 min [10] | phosphorylation of ERK [10] | AKT activation compared to effect on ERK activation [12] | time of peak AKT phosphorylation [12] | phosphorylation of AKT [12] | ERK signaling, determined by ERK phosphorylation [14] | other results |
| --- | --- | --- | --- | --- | --- | --- | --- | --- | --- | --- | --- | --- |
| QRPVNLTMRRKLRKHNCLQRRCMPLHSRVPFP [wild type proEla 32] | block in the induction of autophagy | No effect in PI3K signaling | failed to induce significant effect | No effect in mTORC2 signaling | No effect in NFkB signaling | reduced | able to induce the phosphorylation of ERK | lower AKT activation while compared to their effect on ERK activation | about 15 min | weak visible phosphorylation of AKT | enhanced inhibition of ERK signaling | tumor progression [1]: inhibits tumor progression; wound healing of Renca cells [4]: inhibits wound healing of Renca cells; cells proliferation [6]: inhibits renca cells proliferation; processing by furin, products generated ([9]; listed as wild type proEla): generated predominantly the mature Ela 11 aa; processing by furin, products generated ([9]; listed as wild-type proEla 32): generates only the Ela 11 aa; ERK activation compared between the peptides ([10]; same conditions): higher as compared to mut proEla and Ela 11 effect; mTORC1 pathway, determined by S6K and S6 phosphorylation ([11]; listed as WT): sustained activation of mTORC1 pathway; also recorded: induced mTORC1 activation; tumor growth / tumor progression ([13]; listed as Ela): inhibits tumor progression; tumor growth / tumor progression ([13]; listed as wild type proEla): smaller size of tumors; tumor growth / tumor progression ([13]; listed as wild-type proEla 32): reduced significantly tumor growth; tumor growth inhibition, wild type compared to mutant [13]: inhibit more efficiently tumor growth while compared to mutant proEla 32; tumor growth inhibition, wild type compared to mutant ([13]; listed as Wild type proEla 32): inhibited more efficiently tumor growth while compared to mutant pro Ela 32 |
| mutant proEla 32: proEla 32 in which cleavage sites R31/R32 and R42/R43 were replaced by S31/S32 and S42/S43 (positions 9, 10, 20, 21 of SEQ ID NO: 1) (QRPVNLTMSSKLRKHNCLQSSCMPLHSRVPFP; listed as Homo sapiens) | block in the induction of autophagy | No effect in PI3K signaling | failed to induce significant effect | No effect in mTORC2 signaling | No effect in NFkB signaling | reduced | able to induce the phosphorylation of ERK | lower AKT activation while compared to their effect on ERK activation | about 15 min | weak visible phosphorylation of AKT | enhanced inhibition of ERK signaling | processing by furin, products generated ([9]; listed as mut proEla 32): failed to generate any products; processing by furin, products generated ([9]; listed as mutant peptide ProEla 32): failed to generate any mature Ela products; APJ internalization [15]: able to activate the APJ receptor and mediate its internalization; mTORC1 pathway, determined by S6K and S6 phosphorylation ([11]; listed as MUT): sustained activation of mTORC1 pathway; also recorded: induced mTORC1 activation; tumor growth / tumor progression [13]: reduced significantly tumor growth; tumor growth / tumor progression ([13]; listed as mut ProEla): smaller size of tumors; tumor growth / tumor progression ([13]; listed as mutant ELA polypeptide): capable of inhibiting tumor progression |
